Reference: paper PMC5683375, “Vasculotide reduces pulmonary hyperpermeability in experimental pneumococcal pneumonia” (Critical Care, 2017)
Entries after “also recorded” stand apart in the source; their conditions may differ. Read-outs that look alike come from different tables or passages of the source.

Experiments:
[1] = system: human immunoglobulin G (IgG) Fc; assay: Tryptophan fluorescence spectroscopy, VT with human IgG Fc (specificity control); type: binding; conditions: recombinant human IgG Fc
Method: Binding studies were carried out in 96 well plates (Brand-plates pureGrade reference 781607; BRAND GMBH + CO KG, Wertheim, Germany). Mouse Tie2Fc receptor and human immunoglobulin G (IgG) Fc were obtained from R&D Systems (Minneapolis, MN, USA). Dilutions were prepared in HyClone™ Dulbecco’s PBS (GE Healthcare Life Sciences, Mississauga, ON, Canada). The saturation binding curve was prepared with all ligand dilutions and receptors as 2× concentrations. Equal volumes of ligand and receptor were added to generate a final 1× concentration (500 nM Tie2Fc final concentration). Spectroscopic studies were performed on a SpectraMax M2 fluorometer (Molecular Devices, Sunnyvale, CA, USA). Measurements were taken at an excitation wavelength of 295 nm. Emission scans were set from 360 to 450 nm.

Tie2 [2] = assay: Tie2 phosphorylation in mouse primary lung microvascular endothelial cells (phospho-Tie2 ELISA); type: cell-based; conditions: VT 1, 10, 100, 1000 ng/ml, 15 minutes, serum-containing media; phospho-Tie2 and total Tie2 ELISA; n = 3-6
Method: C57BL/6 mouse primary lung microvascular endothelial cells (Cell Biologics, Chicago, IL, USA) were grown in endothelial cell medium with a kit (Cell Biologics) in 20% O2/5% CO2 in a 37 °C humidified chamber and split 1:2 once reaching 90–95% confluency. To examine the activation of Tie2 by VT in mouse primary lung microvascular endothelial cells, 95–100% confluent cells were stimulated with VT (1, 10, 100, and 1000 ng/ml) in serum-containing media for 15 minutes. Human Ang-1 (R&D Systems) was used as a positive control. VT was synthesized, purified, and validated as described before. Cell lysates were collected using lysis buffer recommended in the mouse phospho-Tie-2 enzyme-linked immunosorbent assay (ELISA) kit (R&D Systems); tyrosine-phosphorylated Tie2 and total Tie2 were measured using ELISA kits (mouse phospho-Tie2 and total-Tie2 ELISA kits; R&D Systems). Three to six independent experiments were analyzed.
Saturation binding data (Fig. 1a–c) are presented as mean ± SEM and were calculated using normalized one-site specific binding and nonlinear regression. For the Tie2 phosphorylation analysis (Fig. 1d), one-way analysis of variance (with Dunnett’s post hoc multiple comparisons test) was used to compare treatment groups with the vehicle-treated group. All other experimental data are expressed as mean, mean + SEM, or mean ± SEM. […]

[3] = system: Streptococcus pneumoniae-infected mice; assay: Lung histology (edema formation, lung injury) in Streptococcus pneumoniae-infected mice; type: in vivo, mouse (C57BL/6 N)
Method: Identical experiments were performed separately for histological analyses of the lungs. Mice were anesthetized 24 h or 48 h p.i. […] After ligation of the trachea, mouse lungs were removed and immediately immersion-fixed in 4% buffered formalin, embedded in paraffin, cut into 2-μm-thick sections, and stained with hematoxylin and eosin as described elsewhere. The degree of edema formation was assessed semiquantitatively (0 = no edema, 1 = minimal edema, 2 = mild edema, 3 = moderate edema, 4 = severe edema). Three evenly distributed sections per lung were microscopically evaluated to assess edema formation.

Streptococcus pneumoniae = assay: Bacterial growth in vitro (optical density); type: cell-based, Streptococcus pneumoniae serotype 3 (NCTC7978); conditions: VT 5 µg/ml, log-phase culture, THY media, 37°C, 5% CO2; OD every 30 min for 5 hours; preliminary experiment
Method: experiment, we investigated if Vasculotide (VT) has a direct effect on the bacterial growth of Streptococcus pneumoniae. Capsulated S. pneumoniae (S. pn.) serotype 3 (NCTC7978) was cultured on Columbia blood agar + 5% sheep blood for 8 h. Single colonies were transferred into THY media to yield OD600 = 0.03-0.04. Liquid cultures were incubated at 37°C and 5% CO2 for 2.5-4 h until the bacteria reached a phase of logarithmic growth (OD600 = 0.3-0.4).
30 min later, log-phase bacterial cultures were treated with VT (5 µg/ml) or PBS. Optical density was measured every 30 min for further 5 hours. Individual time-proliferation curves

murine endotoxemia = conditions: cited from earlier work
[4] = system: mice with influenza pneumonia; conditions: cited from earlier work
[5] = system: acute skin ionizing radiation in mice; conditions: cited from earlier work
Tie2 [6] = system: Tie2; design: method as in PMID 18939935, PMID 21421750, PMID 22040774, PMID 26046800, PMID 25159192; conditions: other cell types/tissues; cited from earlier work
S. pneumoniae = assay: Bacterial burden in BALF and blood of Streptococcus pneumoniae-infected mice; conditions: VT 500 ng i.v., 24 h and 48 h p.i., n = 8
Method: Mice were anesthetized with ketamine (80 mg/kg) and xylazine (25 mg/kg) and transnasally inoculated with 5 × 10^6 colony-forming units (CFU) of S. pneumoniae (NCTC7978) in 20 μl of sterile PBS as described before [35]. Sham-infected control mice received 20 μl of sterile PBS. After 22 h, 34 h, and 46 h, body weight and rectal temperature were measured, and different dosages of VT (100, 200, or 500 ng in 100 μl of PBS) or PBS were intravenously injected into the tail vein. Twenty-four or forty-eight hours postinfection (p.i.), mice were anesthetized (160 mg/kg ketamine and 75 mg/kg xylazine) and exsanguinated. […] Subsequently, lungs were flushed, and BAL was performed.
S. pneumoniae (S. pn.) infected mice (5x106
CFU/mouse) were intravenously (i.v.) treated with Vasculotide (VT; 500 ng) or PBS 22 h, 34
h and 46 h post infection (p.i.). The bacterial burden was quantified in bronchoalveolar lavage
fluid (BALF) and in blood 24 h or 48 h p.i.

[7] = system: Streptococcus pneumoniae-infected mice; assay: Plasma levels of IL-6 and KC (ELISA) in Streptococcus pneumoniae-infected mice; conditions: VT 500 ng i.v., n = 8
Method: (§1) For all experiments, female C57BL/6 N mice (8 to 10 weeks old, weighing 18 to 20 g; Charles River Laboratories, Sulzfeld, Germany) were used. Animals were housed under specific pathogen-free conditions under a 12–h/12-h light/dark cycle with free access to food and water.
(§2) Mice were anesthetized with ketamine (80 mg/kg) and xylazine (25 mg/kg) and transnasally inoculated with 5 × 10^6 colony-forming units (CFU) of S. pneumoniae (NCTC7978) in 20 μl of sterile PBS as described before [35]. Sham-infected control mice received 20 μl of sterile PBS. After 22 h, 34 h, and 46 h, body weight and rectal temperature were measured, and different dosages of VT (100, 200, or 500 ng in 100 μl of PBS) or PBS were intravenously injected into the tail vein. Twenty-four or forty-eight hours postinfection (p.i.), mice were anesthetized (160 mg/kg ketamine and 75 mg/kg xylazine) and exsanguinated. […] Subsequently, lungs were flushed, and BAL was performed. To determine permeability, HSA (1 mg/75 μl) was intravenously infused 1 h before lung preparation, and the BALF/plasma ratio was calculated as described elsewhere [35]. […] Cytokines from BALF were measured with a multiplex assay (ProcartaPlex; eBioscience), and plasma levels of interleukin (IL)-6 (BD Biosciences) and KC (keratinocyte chemoattractant; R&D Systems) were quantified by ELISA.

[8] = system: Streptococcus pneumoniae-infected mice; assay: Lung permeability (HSA BALF/plasma ratio) in Streptococcus pneumoniae-infected mice
Method: as §1, §2

Substance: Vasculotide [VT]
- fluorescence intensity / binding with human IgG Fc [1]: No saturation of binding is observed; also recorded: no dose-dependent increase in fluorescence intensity
- Tie2 phosphorylation (Tie2 [2]): resulted in Tie2 phosphorylation in a dose-dependent manner; also recorded: dose-dependent phosphorylation of Tie2
- lung injury (histology) ([3]; VT 500 ng i.v., 24 h and 48 h p.i., n = 3-4, vs PBS): reduced lung injury
- perivascular edema formation, 24 h p.i. ([3]; VT 500 ng i.v., 24 h p.i., n = 3-4, vs PBS): considerably reduced
- neutrophil infiltration of perivascular spaces, 48 h p.i. ([3]; VT 500 ng i.v., 48 h p.i., n = 3-4): without differences between the VT-treated and untreated infected groups
- alveolar edema formation, 48 h p.i. ([3]; VT 500 ng i.v., 48 h p.i., n = 3-4, vs PBS): diminished; also recorded: almost completely abolished (three of four mice); also recorded: nearly devoid of the additional massive alveolar edema formation
- perivascular edema, 48 h p.i. ([3]; VT 500 ng i.v., 48 h p.i., n = 3-4, vs untreated (PBS)): less perivascular edema than the untreated group
- edema or other pathological changes in perivascular spaces, sham-infected ([3]; sham-infected groups, VT 500 ng i.v. or PBS, 24 h and 48 h p.i.): no edema formation or other pathological changes
- direct antimicrobial activity / bacterial growth (Streptococcus pneumoniae): did not affect bacterial growth in vitro; also recorded: failed to show a direct antimicrobial activity
- endotoxemia-induced lung vascular leakage (murine endotoxemia): prevent endotoxemia-induced lung vascular leakage
- protective effect in murine endotoxemia (murine endotoxemia; endotoxemia): protective effect
- survival of mice with influenza pneumonia [4]: increase the survival
- leukocyte influx into the lung in influenza pneumonia ([4]; ref 28 (Sugiyama et al.)): without affecting leukocyte influx into the lung
- pulmonary barrier function in influenza pneumonia ([4]; ref 28 (Sugiyama et al.)): protective effect of VT on pulmonary barrier function
- virus replication in influenza pneumonia ([4]; ref 28 (Sugiyama et al.)): without affecting leukocyte influx into the lung or repressing virus replication
- acute skin ionizing radiation [5]: protective effect
- Tie2 phosphorylation (Tie2 [6]): confirms findings of other studies
- bacterial burden in BALF (S. pneumoniae; BALF): did not affect; also recorded: not significantly reduced
- bacterial burden in blood (S. pneumoniae; blood): did not affect; also recorded: not significantly reduced
- IL-6 and KC plasma levels, trend ([7]; 24 h and 48 h p.i.): slightly decreased by trend
- IL-6 plasma level, 24 h p.i. ([7]; 24 h p.i.): significantly reduced
- IL-6 plasma level, 48 h p.i. ([7]; 48 h p.i.): did not differ
- lung permeability (HSA BALF/plasma ratio), 48 h p.i., second set ([8]; VT 500 ng i.v. at 22, 34, 46 h p.i., Fig. 4b, n = 8, vs PBS): decreased pulmonary barrier disruption; also recorded: Lung permeability was decreased
- lung hyperpermeability (HSA BALF/plasma ratio), 48 h p.i. ([8]; VT 500 ng i.v. at 22, 34, 46 h p.i., dose-finding experiment (Fig. 3b), n = 5-7, vs PBS): significant permeability reduction; also recorded: significantly reduced lung hyperpermeability
- lung permeability (HSA BALF/plasma ratio), 24 h p.i., second set ([8]; VT 500 ng i.v. at 22 h p.i., Fig. 4a, n = 8, vs PBS): decreased pulmonary barrier disruption; also recorded: Lung permeability was decreased
- lung hyperpermeability (HSA BALF/plasma ratio), 24 h p.i. ([8]; VT 500 ng i.v. at 22 h p.i., dose-finding experiment (Fig. 3a), n = 5-7, vs PBS): significant permeability reduction; also recorded: significantly reduced lung hyperpermeability
- lung hyperpermeability, dose dependence ([8]; VT 100, 200, 500 ng i.v. from 22 h p.i., 24 h and 48 h p.i.): reduced lung hyperpermeability in a dose-dependent fashion; also recorded: quickly and effectively reduce pulmonary hyperpermeability in a dose-dependent manner
